For four compounds, residual activity results are on record in the kinase profiling compilation of Christmann-Franck et al. (2016).

Each structure is given as a SMILES string.

ACVR1B (human), sequence (P36896 whole entry, looked up): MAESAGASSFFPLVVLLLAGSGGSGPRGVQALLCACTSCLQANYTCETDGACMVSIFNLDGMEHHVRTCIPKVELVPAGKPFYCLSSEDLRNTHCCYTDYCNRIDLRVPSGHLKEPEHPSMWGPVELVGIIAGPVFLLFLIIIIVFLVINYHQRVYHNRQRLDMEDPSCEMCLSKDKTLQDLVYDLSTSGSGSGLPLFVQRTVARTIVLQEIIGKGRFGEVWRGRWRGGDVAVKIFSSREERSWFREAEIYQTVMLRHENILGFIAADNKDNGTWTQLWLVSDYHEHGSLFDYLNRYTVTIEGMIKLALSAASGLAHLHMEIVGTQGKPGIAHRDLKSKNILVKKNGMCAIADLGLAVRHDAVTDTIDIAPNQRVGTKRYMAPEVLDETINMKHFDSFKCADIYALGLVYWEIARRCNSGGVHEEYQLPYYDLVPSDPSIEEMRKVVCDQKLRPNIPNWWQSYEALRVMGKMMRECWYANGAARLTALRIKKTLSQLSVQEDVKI
DAPK2 (human), sequence (Q9UIK4 whole entry, looked up): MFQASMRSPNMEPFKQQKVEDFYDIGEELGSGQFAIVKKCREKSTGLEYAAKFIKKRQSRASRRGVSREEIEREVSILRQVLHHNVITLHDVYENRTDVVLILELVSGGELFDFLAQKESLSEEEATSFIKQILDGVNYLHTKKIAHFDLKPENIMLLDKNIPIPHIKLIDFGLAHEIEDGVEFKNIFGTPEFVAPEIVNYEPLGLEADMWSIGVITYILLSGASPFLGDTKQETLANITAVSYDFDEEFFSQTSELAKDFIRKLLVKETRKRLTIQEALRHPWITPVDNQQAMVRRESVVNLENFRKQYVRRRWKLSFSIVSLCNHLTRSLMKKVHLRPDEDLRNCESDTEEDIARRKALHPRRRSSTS
ERBB4 (human), sequence (Q15303 whole entry, looked up): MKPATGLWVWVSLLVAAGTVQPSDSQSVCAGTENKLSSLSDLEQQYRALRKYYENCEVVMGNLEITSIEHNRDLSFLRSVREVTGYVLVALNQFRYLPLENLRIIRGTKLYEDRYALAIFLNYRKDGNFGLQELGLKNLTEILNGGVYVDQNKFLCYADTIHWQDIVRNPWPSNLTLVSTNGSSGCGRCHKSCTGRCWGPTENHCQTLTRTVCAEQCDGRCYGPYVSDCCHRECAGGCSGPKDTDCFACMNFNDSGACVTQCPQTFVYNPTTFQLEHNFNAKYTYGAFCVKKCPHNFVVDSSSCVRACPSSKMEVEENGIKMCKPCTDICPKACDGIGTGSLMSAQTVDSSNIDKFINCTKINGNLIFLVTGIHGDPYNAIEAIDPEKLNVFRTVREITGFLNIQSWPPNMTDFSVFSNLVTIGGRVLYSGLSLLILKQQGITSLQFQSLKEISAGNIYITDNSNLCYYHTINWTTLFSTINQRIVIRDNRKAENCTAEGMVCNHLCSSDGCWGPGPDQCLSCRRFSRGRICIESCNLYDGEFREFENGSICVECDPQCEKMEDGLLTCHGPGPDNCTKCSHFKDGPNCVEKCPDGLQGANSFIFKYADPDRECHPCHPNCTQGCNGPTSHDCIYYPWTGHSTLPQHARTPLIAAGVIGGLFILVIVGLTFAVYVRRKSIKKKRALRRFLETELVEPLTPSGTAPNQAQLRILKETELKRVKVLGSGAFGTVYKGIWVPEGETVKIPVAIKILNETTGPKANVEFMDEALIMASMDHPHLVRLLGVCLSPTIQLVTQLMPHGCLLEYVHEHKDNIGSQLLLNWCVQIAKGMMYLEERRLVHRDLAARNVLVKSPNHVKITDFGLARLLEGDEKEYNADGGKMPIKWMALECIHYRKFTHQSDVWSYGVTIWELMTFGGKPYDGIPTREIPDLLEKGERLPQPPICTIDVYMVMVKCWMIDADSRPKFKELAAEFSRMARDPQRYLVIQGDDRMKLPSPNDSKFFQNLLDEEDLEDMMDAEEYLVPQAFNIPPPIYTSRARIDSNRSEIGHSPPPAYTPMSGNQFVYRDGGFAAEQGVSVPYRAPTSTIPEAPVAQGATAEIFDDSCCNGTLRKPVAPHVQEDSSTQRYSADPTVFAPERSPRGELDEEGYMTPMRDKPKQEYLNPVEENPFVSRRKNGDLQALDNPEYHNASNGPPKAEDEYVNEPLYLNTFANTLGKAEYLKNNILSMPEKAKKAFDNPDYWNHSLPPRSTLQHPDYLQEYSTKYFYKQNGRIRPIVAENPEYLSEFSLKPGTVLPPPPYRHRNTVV

One assay deals with CLK2 (human) (UniProt P49760). The assay is described as follows: radiometric filter-binding kinase assay, Kinase HotSpot. Conditions: compound 0.5 µM; ATP 10 µM.
As a reminder, the residual activity is the signal under treatment as a percentage of the control signal. On to `CC(=O)O/N=C1\C(=C2\C(=O)Nc3cc(Br)ccc32)Nc2ccccc21`, for which the residual activity was found to be 96.8%.
`O=C(O)/C=C/c1cc(Br)c(Br)c(Br)c1Br`: the residual activity was 85%.
On the same count and under the same terms, in the case of `Cc1nc2cc3nc(-c4cccs4)cnc3cc2n1C` it was 95.3%; in that of `O=C1NC(=O)C(c2cn(CCCO)c3ncccc23)=C1c1cnccn1`, 98.9%.

For the next assay, the target named is AURKB (human) (UniProt Q96GD4). The description is as above. Conditions: compound 0.5 µM; ATP 10 µM.
Turning to `CC(=O)O/N=C1\C(=C2\C(=O)Nc3cc(Br)ccc32)Nc2ccccc21`, the residual activity turned out to be 81%.
Same read-out and setting: the value for `O=C(O)/C=C/c1cc(Br)c(Br)c(Br)c1Br` was 88.5%; that for `Cc1nc2cc3nc(-c4cccs4)cnc3cc2n1C` was 84.9%; that for `O=C1NC(=O)C(c2cn(CCCO)c3ncccc23)=C1c1cnccn1` was 101%.

Another assay addresses PAK2 (human) (UniProt Q13177). The description is as above. Conditions: compound 0.5 µM; ATP 10 µM.
Take `CC(=O)O/N=C1\C(=C2\C(=O)Nc3cc(Br)ccc32)Nc2ccccc21`: the residual activity amounted to 103%.
The same measure, in the same setting: in the case of `O=C(O)/C=C/c1cc(Br)c(Br)c(Br)c1Br` it was 83.2%; in that of `Cc1nc2cc3nc(-c4cccs4)cnc3cc2n1C`, 102%; in that of `O=C1NC(=O)C(c2cn(CCCO)c3ncccc23)=C1c1cnccn1`, 105%.

A further assay has as its target MARK3 (human) (UniProt P27448). The description is as above. The note with it: compound 0.5 µM; ATP 10 µM.
Turning to `CC(=O)O/N=C1\C(=C2\C(=O)Nc3cc(Br)ccc32)Nc2ccccc21`, the residual activity came out at 85.4%.
On the same count and under the same terms, in the case of `O=C(O)/C=C/c1cc(Br)c(Br)c(Br)c1Br` it was 104%; in that of `Cc1nc2cc3nc(-c4cccs4)cnc3cc2n1C`, 105%; in that of `O=C1NC(=O)C(c2cn(CCCO)c3ncccc23)=C1c1cnccn1`, 87.8%.

Another assay concerns the target ERBB4 (human) (UniProt Q15303). The assay is described as above. The note with it: compound 0.5 µM; ATP 10 µM.
In the case of `CC(=O)O/N=C1\C(=C2\C(=O)Nc3cc(Br)ccc32)Nc2ccccc21`, the residual activity was found to be 101%.
Same read-out and setting: the value for `O=C(O)/C=C/c1cc(Br)c(Br)c(Br)c1Br` was 104%.
Still for that read-out and setting: the value for `Cc1nc2cc3nc(-c4cccs4)cnc3cc2n1C` was 95%; that for `O=C1NC(=O)C(c2cn(CCCO)c3ncccc23)=C1c1cnccn1` was 115%.

In the next assay the target is FGFR3 (human) (UniProt P22607). The description is as above. Conditions: compound 0.5 µM; ATP 10 µM.
`CC(=O)O/N=C1\C(=C2\C(=O)Nc3cc(Br)ccc32)Nc2ccccc21`: the residual activity worked out at 46.5%.
The same measure, in the same setting: the value for `O=C(O)/C=C/c1cc(Br)c(Br)c(Br)c1Br` was 94.9%; that for `Cc1nc2cc3nc(-c4cccs4)cnc3cc2n1C` was 67.1%; that for `O=C1NC(=O)C(c2cn(CCCO)c3ncccc23)=C1c1cnccn1` was 78.7%.

The target in the next assay is PLK3 (human) (UniProt Q9H4B4). Described as above. Conditions: compound 0.5 µM; ATP 10 µM.
PLK3 (human), sequence (Q9H4B4 whole entry, looked up): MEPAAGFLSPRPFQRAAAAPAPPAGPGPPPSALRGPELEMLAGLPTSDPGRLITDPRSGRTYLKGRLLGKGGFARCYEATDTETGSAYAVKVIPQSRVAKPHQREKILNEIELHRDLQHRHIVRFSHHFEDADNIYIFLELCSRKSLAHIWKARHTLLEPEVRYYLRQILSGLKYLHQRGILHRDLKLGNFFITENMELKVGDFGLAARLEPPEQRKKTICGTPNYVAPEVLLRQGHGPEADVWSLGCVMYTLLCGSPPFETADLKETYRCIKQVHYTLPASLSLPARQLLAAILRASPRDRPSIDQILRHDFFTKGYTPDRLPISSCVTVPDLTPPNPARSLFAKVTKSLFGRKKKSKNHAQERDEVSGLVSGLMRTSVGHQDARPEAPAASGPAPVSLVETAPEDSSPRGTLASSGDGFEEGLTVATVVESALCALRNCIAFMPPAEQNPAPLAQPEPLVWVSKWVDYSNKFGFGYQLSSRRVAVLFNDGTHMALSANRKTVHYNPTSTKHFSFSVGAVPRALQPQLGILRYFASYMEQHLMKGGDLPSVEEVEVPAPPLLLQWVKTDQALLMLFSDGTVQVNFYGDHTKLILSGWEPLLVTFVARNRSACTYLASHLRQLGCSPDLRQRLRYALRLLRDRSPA
Regarding `CC(=O)O/N=C1\C(=C2\C(=O)Nc3cc(Br)ccc32)Nc2ccccc21`, the residual activity came out at 96.2%.
The same measure, in the same setting: the value for `O=C(O)/C=C/c1cc(Br)c(Br)c(Br)c1Br` was 73.6%; that for `Cc1nc2cc3nc(-c4cccs4)cnc3cc2n1C` was 95.6%; that for `O=C1NC(=O)C(c2cn(CCCO)c3ncccc23)=C1c1cnccn1` was 91.1%.

The target in the next assay is MAP3K14 (human) (UniProt Q99558). The description is as above. Conditions: compound 0.5 µM; ATP 10 µM.
Regarding `CC(=O)O/N=C1\C(=C2\C(=O)Nc3cc(Br)ccc32)Nc2ccccc21`, the residual activity was 75.7%.
On the same count and under the same terms, the value for `O=C(O)/C=C/c1cc(Br)c(Br)c(Br)c1Br` was 100%; that for `Cc1nc2cc3nc(-c4cccs4)cnc3cc2n1C` was 97.4%.
Still for that read-out and setting: the value for `O=C1NC(=O)C(c2cn(CCCO)c3ncccc23)=C1c1cnccn1` was 78.1%.

A further assay concerns the target CLK4 (human) (UniProt Q9HAZ1). Described as above. Conditions: compound 0.5 µM; ATP 10 µM.
On to `CC(=O)O/N=C1\C(=C2\C(=O)Nc3cc(Br)ccc32)Nc2ccccc21`, for which the residual activity is 94.1%.
The same measure, in the same setting: in the case of `O=C(O)/C=C/c1cc(Br)c(Br)c(Br)c1Br` it was 45.4%; in that of `Cc1nc2cc3nc(-c4cccs4)cnc3cc2n1C`, 79.2%.
On the same count and under the same terms, the value for `O=C1NC(=O)C(c2cn(CCCO)c3ncccc23)=C1c1cnccn1` was 100%.

In a further assay the target is JAK3 JH1 JH2 (human) (UniProt P52333). Described as above. Conditions: compound 0.5 µM; ATP 10 µM.
JAK3 JH1 JH2 (human), sequence (P52333 whole entry, looked up): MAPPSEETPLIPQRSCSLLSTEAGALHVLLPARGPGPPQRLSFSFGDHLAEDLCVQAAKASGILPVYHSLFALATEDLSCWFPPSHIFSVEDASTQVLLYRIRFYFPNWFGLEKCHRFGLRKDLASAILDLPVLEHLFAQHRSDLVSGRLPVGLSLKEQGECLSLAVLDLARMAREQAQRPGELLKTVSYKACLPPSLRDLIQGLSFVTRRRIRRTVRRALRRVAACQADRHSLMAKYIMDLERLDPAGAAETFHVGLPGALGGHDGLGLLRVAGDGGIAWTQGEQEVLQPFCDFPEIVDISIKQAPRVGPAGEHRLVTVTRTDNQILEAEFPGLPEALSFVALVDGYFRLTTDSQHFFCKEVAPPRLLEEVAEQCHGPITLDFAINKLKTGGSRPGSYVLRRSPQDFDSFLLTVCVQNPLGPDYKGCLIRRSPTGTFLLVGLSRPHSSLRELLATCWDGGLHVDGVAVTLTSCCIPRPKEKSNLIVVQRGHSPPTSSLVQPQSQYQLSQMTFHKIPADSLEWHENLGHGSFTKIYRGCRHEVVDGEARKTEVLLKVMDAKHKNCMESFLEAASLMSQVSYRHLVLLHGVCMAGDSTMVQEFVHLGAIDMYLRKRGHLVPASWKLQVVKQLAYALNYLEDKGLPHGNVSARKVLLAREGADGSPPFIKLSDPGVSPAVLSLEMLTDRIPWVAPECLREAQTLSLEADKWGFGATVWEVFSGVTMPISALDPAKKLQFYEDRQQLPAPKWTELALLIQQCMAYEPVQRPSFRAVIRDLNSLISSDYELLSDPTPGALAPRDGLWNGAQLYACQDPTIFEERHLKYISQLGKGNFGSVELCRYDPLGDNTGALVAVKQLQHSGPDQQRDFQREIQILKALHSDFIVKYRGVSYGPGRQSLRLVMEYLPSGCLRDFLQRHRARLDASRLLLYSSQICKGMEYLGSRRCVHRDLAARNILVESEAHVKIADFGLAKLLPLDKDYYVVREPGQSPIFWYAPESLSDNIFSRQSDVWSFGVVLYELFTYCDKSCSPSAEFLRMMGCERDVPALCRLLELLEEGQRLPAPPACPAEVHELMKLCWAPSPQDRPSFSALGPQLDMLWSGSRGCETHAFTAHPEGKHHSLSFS
In the case of `CC(=O)O/N=C1\C(=C2\C(=O)Nc3cc(Br)ccc32)Nc2ccccc21`, the residual activity was 107%.
Same read-out and setting: the value for `O=C(O)/C=C/c1cc(Br)c(Br)c(Br)c1Br` was 71.8%; that for `Cc1nc2cc3nc(-c4cccs4)cnc3cc2n1C` was 107%; that for `O=C1NC(=O)C(c2cn(CCCO)c3ncccc23)=C1c1cnccn1` was 134%.

A further assay has as its target ACVR1B (human) (UniProt P36896). The description is as above. The note with it: compound 0.5 µM; ATP 10 µM.
For the compound `CC(=O)O/N=C1\C(=C2\C(=O)Nc3cc(Br)ccc32)Nc2ccccc21`, the residual activity stood at 98.2%.
The same measure, in the same setting: in the case of `O=C(O)/C=C/c1cc(Br)c(Br)c(Br)c1Br` it was 103%.
The same measure, in the same setting: the value for `Cc1nc2cc3nc(-c4cccs4)cnc3cc2n1C` was 104%.
On to `O=C1NC(=O)C(c2cn(CCCO)c3ncccc23)=C1c1cnccn1`, for which the residual activity is 100%.

Another assay has as its target DAPK2 (human) (UniProt Q9UIK4). The description is as above. Conditions: compound 0.5 µM; ATP 10 µM.
Regarding `CC(=O)O/N=C1\C(=C2\C(=O)Nc3cc(Br)ccc32)Nc2ccccc21`, the residual activity came to 68.7%.
Take `O=C(O)/C=C/c1cc(Br)c(Br)c(Br)c1Br`: the residual activity was 104%.
On the same count and under the same terms, in the case of `Cc1nc2cc3nc(-c4cccs4)cnc3cc2n1C` it was 94.1%; in that of `O=C1NC(=O)C(c2cn(CCCO)c3ncccc23)=C1c1cnccn1`, 88.4%.

The target of another assay is NEK9 (human) (UniProt Q8TD19). The assay is described as above. The note with it: compound 0.5 µM; ATP 10 µM.
For the compound `CC(=O)O/N=C1\C(=C2\C(=O)Nc3cc(Br)ccc32)Nc2ccccc21`, the residual activity is 86.7%.
Same read-out and setting: the value for `O=C(O)/C=C/c1cc(Br)c(Br)c(Br)c1Br` was 94.7%; that for `Cc1nc2cc3nc(-c4cccs4)cnc3cc2n1C` was 105%.
The same measure, in the same setting: in the case of `O=C1NC(=O)C(c2cn(CCCO)c3ncccc23)=C1c1cnccn1` it was 93.4%.

The target of a further assay is GSG2 (human) (UniProt Q8TF76). The description is as above. The note with it: compound 0.5 µM; ATP 10 µM.
With `CC(=O)O/N=C1\C(=C2\C(=O)Nc3cc(Br)ccc32)Nc2ccccc21`, the residual activity was 85.5%.
Same read-out and setting: the value for `O=C(O)/C=C/c1cc(Br)c(Br)c(Br)c1Br` was 88.4%; that for `Cc1nc2cc3nc(-c4cccs4)cnc3cc2n1C` was 108%.
The same measure, in the same setting: in the case of `O=C1NC(=O)C(c2cn(CCCO)c3ncccc23)=C1c1cnccn1` it was 91.9%.

In another assay the target is CAMK1D (human) (UniProt Q8IU85). The assay is described as above. Conditions: compound 0.5 µM; ATP 10 µM.
CAMK1D (human), sequence (Q8IU85 whole entry, looked up): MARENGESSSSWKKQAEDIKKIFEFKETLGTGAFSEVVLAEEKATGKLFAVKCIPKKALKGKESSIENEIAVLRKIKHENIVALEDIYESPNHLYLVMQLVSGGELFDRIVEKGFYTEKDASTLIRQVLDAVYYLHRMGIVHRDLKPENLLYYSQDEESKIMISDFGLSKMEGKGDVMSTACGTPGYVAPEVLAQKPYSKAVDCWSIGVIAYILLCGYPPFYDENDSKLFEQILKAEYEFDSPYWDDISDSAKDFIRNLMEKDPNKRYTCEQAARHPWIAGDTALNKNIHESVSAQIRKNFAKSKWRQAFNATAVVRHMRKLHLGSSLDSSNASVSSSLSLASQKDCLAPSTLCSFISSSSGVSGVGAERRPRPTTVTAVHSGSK
Take `CC(=O)O/N=C1\C(=C2\C(=O)Nc3cc(Br)ccc32)Nc2ccccc21`: the residual activity was found to be 79.1%.
On the same count and under the same terms, the value for `O=C(O)/C=C/c1cc(Br)c(Br)c(Br)c1Br` was 98.1%; that for `Cc1nc2cc3nc(-c4cccs4)cnc3cc2n1C` was 107%; that for `O=C1NC(=O)C(c2cn(CCCO)c3ncccc23)=C1c1cnccn1` was 95.1%.

The next assay has as its target OXSR1 (human) (UniProt O95747). Described as above. The note with it: compound 0.5 µM; ATP 10 µM.
As for `CC(=O)O/N=C1\C(=C2\C(=O)Nc3cc(Br)ccc32)Nc2ccccc21`, the residual activity was 112%.
On the same count and under the same terms, in the case of `O=C(O)/C=C/c1cc(Br)c(Br)c(Br)c1Br` it was 93.5%; in that of `Cc1nc2cc3nc(-c4cccs4)cnc3cc2n1C`, 99.4%; in that of `O=C1NC(=O)C(c2cn(CCCO)c3ncccc23)=C1c1cnccn1`, 101%.

The target of a further assay is RIPK2 (human) (UniProt O43353). Described as above. The note with it: compound 0.5 µM; ATP 10 µM.
RIPK2 (human), sequence (O43353 whole entry, looked up): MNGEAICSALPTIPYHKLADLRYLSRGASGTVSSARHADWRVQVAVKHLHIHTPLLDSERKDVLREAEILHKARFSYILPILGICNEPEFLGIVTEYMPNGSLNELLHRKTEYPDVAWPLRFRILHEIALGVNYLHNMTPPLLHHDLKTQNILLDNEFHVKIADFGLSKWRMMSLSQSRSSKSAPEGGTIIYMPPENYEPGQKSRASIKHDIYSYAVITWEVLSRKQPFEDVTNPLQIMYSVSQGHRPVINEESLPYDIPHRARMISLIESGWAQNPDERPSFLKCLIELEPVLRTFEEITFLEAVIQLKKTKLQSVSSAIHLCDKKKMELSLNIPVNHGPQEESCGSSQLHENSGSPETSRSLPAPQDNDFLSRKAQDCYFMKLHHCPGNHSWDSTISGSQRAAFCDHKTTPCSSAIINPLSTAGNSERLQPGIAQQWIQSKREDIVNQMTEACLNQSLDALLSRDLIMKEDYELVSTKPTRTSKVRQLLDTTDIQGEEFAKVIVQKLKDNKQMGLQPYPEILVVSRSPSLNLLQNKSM
In the case of `CC(=O)O/N=C1\C(=C2\C(=O)Nc3cc(Br)ccc32)Nc2ccccc21`, the residual activity is 108%.
The same measure, in the same setting: the value for `O=C(O)/C=C/c1cc(Br)c(Br)c(Br)c1Br` was 88.4%.
The same measure, in the same setting: in the case of `Cc1nc2cc3nc(-c4cccs4)cnc3cc2n1C` it was 89.1%.
